The record followed here is patent publication US20210155715A1, “USE OF TRYPTOPHAN DERIVATIVES AND L-METHIONINE FOR PROTEIN FORMULATION” (Genentech, Inc., priority 2018, published 2021).

The target in data set [1] is T1, neurokinin-1 (NK-1) receptor (Homo sapiens, UniProt P25103).
T1 construct: U373MG human astrocytoma cells which endogenously express the receptor; endogenous in cells; host or cells: U373MG human astrocytoma cells
Kind of data set: Binding to the NK-1 receptor in U373MG human astrocytoma cells. To be noted: room temperature. The method, then:
The activity of NAT was assessed in binding, cellular and nuclear receptor functional and tissue bioassays. Binding to the neurokinin-1 (NK-1) receptor was assessed in U373MG human astrocytoma cells which endogenously express the receptor (Eistetter et al. (1992) Functional characterization of Neurokinin-1 receptors on human U373MG astrocytoma cells. Glia 6(2):89-95; Heuillet et al. (1993) J. Neurochem 60(3):868-876), and compared to the reference agonist [Sar^9, Met(O2)^11]-SP or to the reference antagonist L 733,060. NAT or the reference compounds were incubated with U373MG cells at room temperature; all concentrations were assayed in duplicate.

Data set [2] can be described thus: AAPH chemical oxidation stress of mAb1/mAb2, LC-MS peptide mapping. Type of data set: physicochemical. To be noted: 0.3 mM NAT.
Text: Antibodies were subjected to AAPH stress followed by peptide mapping to identify the CDR and Fc residues that were sensitive to oxidation (Dion et al., manuscript in preparation). […] If a residue oxidized by >5% relative to the control, it was deemed sensitive and monitored throughout the course of the experiments. […] In brief, samples were denatured, reduced, carboxylmethylated and subjected to trypsin digestion. Peptides were separated on an Acquity UPLC Peptide CSH C18 column using a water/acetonitrile/formic acid gradient on a Waters Acquity H-Class UHPLC coupled to a Thermo Q Exactive Plus high-resolution mass spectrometer. Data was processed using Thermo Scientific PepFinder™ and Xcalibur™ software. Integration was performed on extracted ion chromatograms of monoisotopic m/z using the most abundant charge state(s) for the native and oxidized peptides. The percent oxidation was calculated by dividing the peak area of the oxidized peptides by the summed peak area of the native and oxidized peptides. The major tryptophan degradation products (+16 and +32, in addition to +4, +20, and +48 for highly oxidized sites) were summed and used to calculate tryptophan oxidation. Only methionine sulfoxide (M+16) was used to calculate methionine oxidation, as methionine sulfone (M+32) was not observed under these conditions. […]
Data set [3] can be described thus: Light exposure stress (high intensity UV) of mAb1/mAb2, LC-MS peptide mapping. Type of data set: physicochemical. The note with it: 5 mM L-Methionine. The source says: Antibodies were subjected to AAPH stress followed by peptide mapping to identify the CDR and Fc residues that were sensitive to oxidation (Dion et al., manuscript in preparation). Kabat numbering was used to identify variable fragment (Fv) residues, while EU nomenclature (Edelman et al. (1969) Proc Natl Acad Sci USA 63(1):78-85) was used to identify Fc residues. If a residue oxidized by >5% relative to the control, it was deemed sensitive and monitored throughout the course of the experiments. Peptide mapping and analysis information was as reported in Dion et al. (manuscript in preparation). In brief, samples were denatured, reduced, carboxylmethylated and subjected to trypsin digestion. […] The percent oxidation was calculated by dividing the peak area of the oxidized peptides by the summed peak area of the native and oxidized peptides. […]
Proteins (10 mg/mL) were exposed to light stress with a high intensity UV component (300 kilolux-hours visible light and 50 W·h/m^2 of near UV (320-400 nm) light over a 6-hour period) at various NAT concentrations (0-1 mM NAT) to determine the efficacy of NAT as an antioxidant against photo-oxidation (FIGS. 3A-B). […] Residues that were determined to be insensitive to light oxidation under antioxidant-free conditions remained insensitive to light when NAT was added to the formulation under the tested conditions.

T1 sequence (P25103 whole entry): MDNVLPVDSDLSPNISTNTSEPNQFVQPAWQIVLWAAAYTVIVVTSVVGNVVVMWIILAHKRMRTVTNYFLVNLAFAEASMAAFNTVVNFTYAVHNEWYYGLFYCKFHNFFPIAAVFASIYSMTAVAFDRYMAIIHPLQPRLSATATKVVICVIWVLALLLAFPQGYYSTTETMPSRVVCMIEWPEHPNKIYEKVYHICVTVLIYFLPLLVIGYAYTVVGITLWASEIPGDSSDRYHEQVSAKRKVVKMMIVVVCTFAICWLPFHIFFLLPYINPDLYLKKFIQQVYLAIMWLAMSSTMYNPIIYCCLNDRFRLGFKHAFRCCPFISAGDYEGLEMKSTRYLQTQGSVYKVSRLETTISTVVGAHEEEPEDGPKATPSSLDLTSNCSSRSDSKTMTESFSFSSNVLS

In the case of `CC(=O)NC(Cc1c[nH]c2ccccc12)C(=O)O` (racemic) [NAT, N-acetyl-DL-tryptophan], in data set [1], the “IC50 for agonist binding to the NK-1 receptor” value was “could not be calculated” and the “IC50 for antagonist binding to the NK-1 receptor” value was “could not be calculated”. Moreover, in data set [2], the “oxidation of CDR and Fv tryptophan residues” value is on record as under 10%.
For `CSCC[C@H](N)C(=O)O` [L-Methionine, L-methionine], the “impact on oxidation of CDR and Fv residues” value in data set [3] (alone or with 0.3 mM NAT, UV light) is reported as “no beneficial impact”. Also, the “UV light-induced Fc methionine oxidation” value in data set [3] (mAb1 and mAb2) is “improved”.
